Type in all cases: in vivo
Holding throughout (conditions): evaluated after 13 days

For test [1], the system named is Setaria faberi (SETFA). In words: Pre-emergence Test, Setaria faberi (SETFA).
In test [2] the test system is Echinochloa crus-galli (ECHCG). In words: Pre-emergence Test, Echinochloa crus-galli (ECHCG).
The subject of test [3] is Zea mays (ZEAMX). The experiment in a line: Pre-emergence Test, Zea mays (ZEAMX).
Test [4] has as its system Ipomoea hederacea (IPOHE). In words: Pre-emergence Test, Ipomoea hederacea (IPOHE).
Test [5] has as its system Amaranthus palmeri (AMAPA). The experiment in a line: Pre-emergence Test, Amaranthus palmeri (AMAPA).
Test [6] deals with Amaranthus retoflexus (AMARE). In words: Pre-emergence Test, Amaranthus retoflexus (AMARE).
In test [7] the test system is Setaria faberi (SETFA). The experiment in a line: Post-emergence Test, Setaria faberi (SETFA). Details: key to percentage damage caused to the plant, SETFA (five-point scale): 5=81-100%, 4=61-80%, 3=41-60%, 2=21-40%, 1=0-20% damage. The method in brief:
(§1)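 Tested at 1000 g/ha unless otherwise stated. Plants were held at 24/16 °C day/night with a 14 h light period. Percent damage was read at 13 days and reported in five bands.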

Test [8] has as its system Echinochloa crus-galli (ECHCG). The experiment in a line: Post-emergence Test, Echinochloa crus-galli (ECHCG). Details: key to percentage damage caused to the plant, ECHCG (five-point scale): 5=81-100%, 4=61-80%, 3=41-60%, 2=21-40%, 1=0-20% damage. The method in brief:
as §1

The test system of test [9] is Zea mays (ZEAMX). The experiment in a line: Post-emergence Test, Zea mays (ZEAMX). Also on record: key to percentage damage caused to the plant, ZEAMX (five-point scale): 5=81-100%, 4=61-80%, 3=41-60%, 2=21-40%, 1=0-20% damage. The method in brief: as §1
The test system of test [10] is Ipomoea hederacea (IPOHE). The experiment in a line: Post-emergence Test, Ipomoea hederacea (IPOHE). Also on record: key to percentage damage caused to the plant, IPOHE (five-point scale): 5=81-100%, 4=61-80%, 3=41-60%, 2=21-40%, 1=0-20% damage. The method in brief: as §1
Test [11] concerns Amaranthus palmeri (AMAPA). The experiment in a line: Post-emergence Test, Amaranthus palmeri (AMAPA). Details: key: 5=81-100%, 4=61-80%, 3=41-60%, 2=21-40%, 1=0-20% damage. The method in brief: as §1
Test [12] deals with Amaranthus retoflexus (AMARE). The experiment in a line: Post-emergence Test, Amaranthus retoflexus (AMARE). Details: key to percentage damage caused to the plant, AMARE (five-point scale): 5=81-100%, 4=61-80%, 3=41-60%, 2=21-40%, 1=0-20% damage. The method in brief:
as §1

As to `CCn1c(Cn2nc(Cl)cc2C)cc(=O)c(C(=O)O)c1-c1ccc(Cl)c(Cl)c1` [Compound 15, 6-[(3-chloro-5-methyl-pyrazol-1-yl)methyl]-2-(3,4-dichlorophenyl)-1-ethyl-4-oxo-pyridine-3-carboxylic acid], the “Pre-emergence Test SETFA, percentage damage caused to the plant (five-point scale)” value in test [1] (1000 g/ha) is listed as 4 (4=61-80%). The “Pre-emergence Test ECHCG, percentage damage caused to the plant (five-point scale)” value in [2] (1000 g/ha) is given as 4 (4=61-80%). For the same molecule, the “Pre-emergence Test ZEAMX, percentage damage caused to the plant (five-point scale)” value in test [3] (1000 g/ha) is 2 (2=21-40%). In addition, the “Pre-emergence Test IPOHE, percentage damage caused to the plant (five-point scale)” value in [4] (1000 g/ha) is 3 (3=41-60%). For the same molecule, the “Pre-emergence Test AMAPA, percentage damage caused to the plant (five-point scale)” value in test [5] (1000 g/ha) is given as 5 (5=81-100%). For the same molecule, the “Pre-emergence Test AMARE, percentage damage caused to the plant (five-point scale)” value in test [6] (1000 g/ha) is reported as 2 (2=21-40%). Besides, the “percentage damage caused to the plant, SETFA (five-point scale)” value in test [7] (250 g/Ha) is listed as 3 (3=41-60%); in test [7] (1000 g/ha), 4 (4=61-80%). For the same molecule, the “percentage damage caused to the plant, ECHCG (five-point scale)” value in test [8] (250 g/Ha) and in test [8] (1000 g/ha) was 4 (4=61-80%) each time. Moreover, the entries for the “percentage damage caused to the plant, ZEAMX (five-point scale)” value in test [9] (250 g/Ha) and in test [9] (1000 g/ha) were 2 (2=21-40%) and 3 (3=41-60%), respectively. Further, the entries for the “percentage damage caused to the plant, IPOHE (five-point scale)” value in test [10] (250 g/Ha) and in test [10] (1000 g/ha) were 3 (3=41-60%) and 5 (5=81-100%), respectively. Moreover, the “percentage damage caused to the plant, AMAPA (five-point scale)” value in test [11] (250 g/Ha) and in test [11] (1000 g/ha) was 5 (5=81-100%) in each case. Further, the “percentage damage caused to the plant, AMARE (five-point scale)” value in [12] (250 g/Ha) is 5 (5=81-100%); in [12] (1000 g/ha), 3 (3=41-60%).
As for `CCn1c(Cn2cncc2C(F)(F)F)cc(=O)c(C(=O)O)c1-c1ccc(Cl)c(Cl)c1` [Compound 16, 2-(3,4-dichlorophenyl)-1-ethyl-4-oxo-6-[[5-(trifluoromethyl)imidazol-1-yl]methyl]pyridine-3-carboxylic acid], the “Pre-emergence Test SETFA, percentage damage caused to the plant (five-point scale)” value in [1] (250 g/Ha (*)) is 0; in test [1] (1000 g/ha) it was 1 (1=0-20%). For the same molecule, the “Pre-emergence Test ECHCG, percentage damage caused to the plant (five-point scale)” value in [2] (250 g/Ha (*)) is listed as 1 (1=0-20%); in test [2] (1000 g/ha) it was 4 (4=61-80%). In addition, the “Pre-emergence Test ZEAMX, percentage damage caused to the plant (five-point scale)” value in test [3] (250 g/Ha (*)) and in test [3] (1000 g/ha) was 0 each time. The “Pre-emergence Test IPOHE, percentage damage caused to the plant (five-point scale)” value in test [4] (250 g/Ha (*)) and in [4] (1000 g/ha) was 0 throughout. For the same molecule, the results for the “Pre-emergence Test AMAPA, percentage damage caused to the plant (five-point scale)” value in [5] (250 g/Ha (*)) and in test [5] (1000 g/ha) were 3 (3=41-60%) and 5 (5=81-100%), respectively. Also, the “Pre-emergence Test AMARE, percentage damage caused to the plant (five-point scale)” value is reported as 1 (1=0-20%) in [6] (250 g/Ha (*)) and 4 (4=61-80%) in [6] (1000 g/ha). Besides, the figures for the “percentage damage caused to the plant, SETFA (five-point scale)” value in [7] (250 g/Ha) and in test [7] (1000 g/ha) were 2 (2=21-40%) and 5 (5=81-100%), respectively. Moreover, the “percentage damage caused to the plant, ECHCG (five-point scale)” value in test [8] (250 g/Ha) is 2 (2=21-40%); in test [8] (1000 g/ha), 4 (4=61-80%). Besides, the figures for the “percentage damage caused to the plant, ZEAMX (five-point scale)” value in test [9] (250 g/Ha) and in test [9] (1000 g/ha) were 0 and 4 (4=61-80%), respectively. The “percentage damage caused to the plant, IPOHE (five-point scale)” value is 2 (2=21-40%) in [10] (250 g/Ha) and 5 (5=81-100%) in test [10] (1000 g/ha). For the same molecule, the “percentage damage caused to the plant, AMAPA (five-point scale)” value was 4 (4=61-80%) in test [11] (250 g/Ha) and 5 (5=81-100%) in [11] (1000 g/ha). For the same molecule, the “percentage damage caused to the plant, AMARE (five-point scale)” value is recorded as 4 (4=61-80%) in test [12] (250 g/Ha) and 1 (1=0-20%) in test [12] (1000 g/ha).
In the case of `CCn1c(Cn2nc(C)cc2Cl)cc(=O)c(C(=O)O)c1-c1ccc(Cl)c(Cl)c1` [Compound 17, 6-[(5-chloro-3-methyl-pyrazol-1-yl)methyl]-2-(3,4-dichlorophenyl)-1-ethyl-4-oxo-pyridine-3-carboxylic acid], the “Pre-emergence Test SETFA, percentage damage caused to the plant (five-point scale)” value in test [1] (1000 g/ha) is on record as 4 (4=61-80%). Further, the “Pre-emergence Test ECHCG, percentage damage caused to the plant (five-point scale)” value in test [2] (1000 g/ha) is 4 (4=61-80%). Moreover, the “Pre-emergence Test ZEAMX, percentage damage caused to the plant (five-point scale)” value in test [3] (1000 g/ha) is given as 2 (2=21-40%). Further, the “Pre-emergence Test IPOHE, percentage damage caused to the plant (five-point scale)” value in [4] (1000 g/ha) is 3 (3=41-60%). The “Pre-emergence Test AMAPA, percentage damage caused to the plant (five-point scale)” value in [5] (1000 g/ha) is listed as 5 (5=81-100%). In addition, in test [6] (1000 g/ha), the “Pre-emergence Test AMARE, percentage damage caused to the plant (five-point scale)” value is 2 (2=21-40%). Further, the results for the “percentage damage caused to the plant, SETFA (five-point scale)” value in test [7] (250 g/Ha) and in test [7] (1000 g/ha) were 3 (3=41-60%) and 4 (4=61-80%), respectively. In addition, the “percentage damage caused to the plant, ECHCG (five-point scale)” value in test [8] (250 g/Ha) and in test [8] (1000 g/ha) was 4 (4=61-80%) each time. The entries for the “percentage damage caused to the plant, ZEAMX (five-point scale)” value in test [9] (250 g/Ha) and in test [9] (1000 g/ha) were 2 (2=21-40%) and 3 (3=41-60%), respectively. The “percentage damage caused to the plant, IPOHE (five-point scale)” value is reported as 3 (3=41-60%) in [10] (250 g/Ha) and 5 (5=81-100%) in test [10] (1000 g/ha). The “percentage damage caused to the plant, AMAPA (five-point scale)” value in test [11] (250 g/Ha) and in [11] (1000 g/ha) was 5 (5=81-100%) in each case. Moreover, the “percentage damage caused to the plant, AMARE (five-point scale)” value in [12] (250 g/Ha) is given as 5 (5=81-100%); in [12] (1000 g/ha), 3 (3=41-60%).
Turning to `CCn1c(Cn2ccc(C(F)(F)F)n2)c(Br)c(=O)c(C(=O)O)c1-c1ccc(Cl)c(Cl)c1` [Compound 18, 5-bromo-2-(3,4-dichlorophenyl)-1-ethyl-4-oxo-6-[[3-(trifluoromethyl)pyrazol-1-yl]methyl]pyridine-3-carboxylic acid], the “Pre-emergence Test SETFA, percentage damage caused to the plant (five-point scale)” value in test [1] (1000 g/ha) is given as 2 (2=21-40%). The “Pre-emergence Test ECHCG, percentage damage caused to the plant (five-point scale)” value in [2] (1000 g/ha) is 1 (1=0-20%). Moreover, the “Pre-emergence Test ZEAMX, percentage damage caused to the plant (five-point scale)” value in test [3] (1000 g/ha) stood at 0. For the same molecule, the “Pre-emergence Test IPOHE, percentage damage caused to the plant (five-point scale)” value in test [4] (1000 g/ha) is 0. In test [5] (1000 g/ha), the “Pre-emergence Test AMAPA, percentage damage caused to the plant (five-point scale)” value came to 0. Further, the “Pre-emergence Test AMARE, percentage damage caused to the plant (five-point scale)” value in test [6] (1000 g/ha) is 0. Also, the “percentage damage caused to the plant, SETFA (five-point scale)” value in [7] (250 g/Ha) is given as 1 (1=0-20%); in test [7] (1000 g/ha) it was 3 (3=41-60%). For the same molecule, the results for the “percentage damage caused to the plant, ECHCG (five-point scale)” value in test [8] (250 g/Ha) and in test [8] (1000 g/ha) were 1 (1=0-20%) and 3 (3=41-60%), respectively. Besides, the “percentage damage caused to the plant, ZEAMX (five-point scale)” value in [9] (250 g/Ha) is reported as 1 (1=0-20%); in test [9] (1000 g/ha), 2 (2=21-40%). The “percentage damage caused to the plant, IPOHE (five-point scale)” value in [10] (250 g/Ha) and in test [10] (1000 g/ha) was 1 (1=0-20%) each time. In addition, the results for the “percentage damage caused to the plant, AMAPA (five-point scale)” value in test [11] (250 g/Ha) and in [11] (1000 g/ha) were 0 and 2 (2=21-40%), respectively. Also, the “percentage damage caused to the plant, AMARE (five-point scale)” value in [12] (250 g/Ha) and in test [12] (1000 g/ha) was 1 (1=0-20%) throughout.

Source of the values: patent US20250098679A1, “HERBICIDAL PYRIDONE DERIVATIVES” (SYNGENTA CROP PROTECTION AG, priority 2021, published 2025).
